From US20090192169A1, “Bicyclic Benzimidazole Compounds and Their Use as Metabotropic Glutamate Receptor Potentiators” (priority 2006, published 2009)

The compounds below were run against T1, human mGluR2 (Homo sapiens, UniProt Q14416) (assay: [35S]-GTPγS binding assay of mGluR2 receptor activation (allosteric activator activity)). Conditions: membranes from CHO cells stably expressing human mGluR2; in presence of 1 μM glutamate.
T1 construct: expressed in transfected cells
Type: biochemical
Procedure: A [^35S]-GTPγS binding assay was used to functionally assay mGluR2 receptor activation. The allosteric activator activity of compounds at the human mGluR2 receptor was measured using a [^35S]-GTPγS binding assay with membranes prepared from CHO cells which stably express the human mGluR2. The assay is based upon the principle that agonists bind to G-protein coupled receptors to stimulate GDP-GTP exchange at the G-protein. Since [^35S]-GTPγS is a non-hydrolysable GTP analog, it can be used to provide an index of GDP-GTP exchange and, thus, receptor activation. The GTPγS binding assay therefore provides a quantitative measure of receptor activation.
Membranes were prepared from CHO cells stably transfected with human mGluR2. Membranes (30 μg protein) were incubated with test compound (3 nM to 300 μM) for 15 minutes at room temperature prior to the addition of 1 μM glutamate, and incubated for 30 min at 30° C. in 500 μl assay buffer (20 mM HEPES, 100 mM NaCl, 10 mM MgCl2), containing 30 μM GDP and 0.1 nM [^35S]-GTPγS (1250 Ci/mmol). Reactions were carried out in triplicate in 2 ml polypropylene 96-well plates. Reactions were terminated by vacuum filtration using a Packard 96-well harvester and Unifilter-96, GF/B filter microplates. The filter plates were washed 4×1.5 ml with ice-cold wash buffer ([…] sodium phosphate buffer, pH 7.4). The filter plates were dried and 35 μl of scintillation fluid (Microscint 20) was added to each well. The amount of radioactivity bound was determined by counting plates on the Packard TopCount. Data was analyzed using GraphPad Prism, and EC50 and Emax values (relative to the maximum glutamate effect) were calculated using non-linear regression.

T1 sequence (Q14416 19-872): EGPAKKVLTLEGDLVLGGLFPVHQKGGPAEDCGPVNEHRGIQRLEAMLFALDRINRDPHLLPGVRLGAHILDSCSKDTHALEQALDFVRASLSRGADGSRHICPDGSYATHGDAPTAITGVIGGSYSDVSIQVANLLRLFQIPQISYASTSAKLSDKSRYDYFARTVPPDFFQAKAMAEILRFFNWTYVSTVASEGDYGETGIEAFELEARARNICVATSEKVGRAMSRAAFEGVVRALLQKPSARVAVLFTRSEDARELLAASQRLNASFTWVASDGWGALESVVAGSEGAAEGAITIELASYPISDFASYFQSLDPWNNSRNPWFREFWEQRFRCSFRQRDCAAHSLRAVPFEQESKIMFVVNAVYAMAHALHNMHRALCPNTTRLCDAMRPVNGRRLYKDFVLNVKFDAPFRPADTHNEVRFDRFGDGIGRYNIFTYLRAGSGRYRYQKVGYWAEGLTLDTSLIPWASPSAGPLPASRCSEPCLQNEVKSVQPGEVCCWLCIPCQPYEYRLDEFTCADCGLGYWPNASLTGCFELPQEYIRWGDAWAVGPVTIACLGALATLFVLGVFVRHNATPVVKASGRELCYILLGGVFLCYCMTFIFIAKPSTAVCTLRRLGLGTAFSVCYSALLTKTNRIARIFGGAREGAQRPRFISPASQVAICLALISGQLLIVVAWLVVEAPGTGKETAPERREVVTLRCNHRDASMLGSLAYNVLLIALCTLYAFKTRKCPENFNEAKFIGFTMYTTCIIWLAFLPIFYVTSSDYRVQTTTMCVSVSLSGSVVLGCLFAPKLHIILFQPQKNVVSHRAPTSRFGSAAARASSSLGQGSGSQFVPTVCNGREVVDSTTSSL

SMILES | EC50 [nM]
Cn1c(CN2CCC(O)(c3ccc(Cl)cc3)CC2)nc2ccccc21 [Example 1.75, 4-(4-Chloro-phenyl)-1-(1-methyl-1H-benzoimidazol-2-ylmethyl)-piperidin-4-ol] | 8610
Cn1c(CN2CCN(c3ccc(Cl)c(Cl)c3)CC2)nc2ccccc21 [Example 26.8, 2-[4-(3,4-Dichloro-phenyl)-piperazin-1-ylmethyl]-1-methyl-1H-benzoimidazole] | 187
Cc1cccc2nc(CN3CCC(CCOc4ccc(F)c(F)c4)CC3)n(C)c12 [Example 1.2, 2-{4-[2-(3,4-Difluoro-phenoxy)-ethyl]-piperidin-1-ylmethyl}-1,7-dimethyl-1H-benzoimidazole] | 57
Cc1cccc2nc(CN3CCC(c4ccc(F)cc4)CC3)n(C)c12 [Example 1.49, 2-[4-(4-Fluoro-phenyl)-piperidin-1-ylmethyl]-1,7-dimethyl-1H-benzoimidazole] | 79.5
CCn1c(CN2CCC(c3ccccc3)(c3ccccc3)CC2)nc2ccccc21 [Example 1.54, 2-(4,4-Diphenyl-piperidin-1-ylmethyl)-1-ethyl-1H-benzoimidazole] | 1040
